Results as given in PMC12778052 (Science Advances, 2026).
Starred links: 1 amine or outer side, 2 acyl side, 3 side chain; linkers in the order of their positions; H or OH if unused. Positions of bridges follow the written chain, without caps; N, C: chain ends. Non-standard residues stand in square brackets, D forms with d. Primed or numbered codes have the meaning given here. *: point of attachment. TATA = O=C(CC[*:1])N1CN(C(=O)CC[*:2])CN(C(=O)CC[*:3])C1; NOTA = O=C(O)CN1CCN(CC(=O)O)CCN(CC(=O)*)CC1; Hyp = O=C(O)[C@@H]1C[C@@H](O)CN1; hArg = N=C(N)NCCCC[C@H](N)C(=O)O; PEG12′ = not defined here; Nal = naphthylalanine

T1: mouse Nectin-4 (Mus musculus, UniProt Q8R007)
T1 construct: purchased R&D Systems 3116-N4-050
T1 sequence (Q8R007 31-347 limits assumed): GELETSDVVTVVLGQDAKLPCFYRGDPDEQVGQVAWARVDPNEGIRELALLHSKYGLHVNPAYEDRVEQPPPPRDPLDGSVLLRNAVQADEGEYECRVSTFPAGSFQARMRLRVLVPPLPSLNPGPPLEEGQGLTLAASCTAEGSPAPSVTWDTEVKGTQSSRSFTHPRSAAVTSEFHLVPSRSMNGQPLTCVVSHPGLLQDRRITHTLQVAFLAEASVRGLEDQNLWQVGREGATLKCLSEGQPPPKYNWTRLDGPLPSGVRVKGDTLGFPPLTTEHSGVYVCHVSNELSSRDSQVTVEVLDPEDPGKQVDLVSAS

T2: human Nectin-4 (Homo sapiens, UniProt Q96NY8)
T2 construct: purchased R&D Systems 2659-N4-050
T2 sequence (Q96NY8 32-349 limits assumed): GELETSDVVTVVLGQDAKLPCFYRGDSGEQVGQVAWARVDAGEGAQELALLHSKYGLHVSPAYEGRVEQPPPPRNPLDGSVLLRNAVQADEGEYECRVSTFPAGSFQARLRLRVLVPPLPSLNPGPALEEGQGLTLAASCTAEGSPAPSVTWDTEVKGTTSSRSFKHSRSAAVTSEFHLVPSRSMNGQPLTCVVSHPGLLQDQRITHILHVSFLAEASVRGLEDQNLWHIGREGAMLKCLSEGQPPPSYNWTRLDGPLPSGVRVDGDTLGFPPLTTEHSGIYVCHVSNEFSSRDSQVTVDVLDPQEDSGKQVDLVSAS

T3: His-tagged mouse Nectin-4 (R&D Systems, catalog no. 3116-N4-050) (mouse, UniProt Q8R007 31-347)
T3 chain: T1 sequence (Q8R007 31-347 limits assumed)

T4: His-tagged human Nectin-4 (R&D Systems, catalog no. 2659-N4-050) (human, UniProt Q96NY8 32-349)
T4 chain: T2 sequence (Q96NY8 32-349 limits assumed)


Legend:
[1] = target: T1, mouse Nectin-4; test: SPR affinity for recombinant mouse Nectin-4; type: binding; conditions: Biacore T200, CM5 chip, 25°C, His-tagged recombinant protein captured, 1:1 kinetics fit, n = 3
Description: (§1) The affinity of AJ647 for human and mouse Nectin-4 recombinant proteins was evaluated by SPR. The experiments were conducted using a Biacore T200 instrument with a CM5 chip at 25°C. The ligands used were His-tagged human Nectin-4 (R&D Systems, catalog no. 2659-N4-050, 44 kDa, 0.2 mg/ml stock concentration) and mouse Nectin-4 proteins (R&D Systems, catalog no. 3116-N4-050, 45 kDa, 0.2 mg/ml stock concentration), which were immobilized onto the CM5 chip. AJ647 (3057.5 Da, 10 mM stock concentration) was used as the analyte, which flowed over the ligand-immobilized surface. FC2 and FC4 was used as the experimental flow cell, while FC1 and FC3 served as the reference. An anti-His antibody (1 mg/ml stock concentration) was immobilized on all flow cells using standard amine coupling chemistry. […] Human Nectin-4 was captured onto FC2 at a level of ~600 RU, with a 1:20 dilution and 10 μg/ml diluted concentration in PBS-P. Mouse Nectin-4 was captured onto FC4 at a level of 600 RU, with a 1:20 dilution and 10 μg/ml diluted concentration in PBS-P. The theoretical maximum response (Rmax ) values were calculated on the basis of the captured response values (table S1), assuming a 1:1 interaction mechanism. […] All association and dissociation kinetics were evaluated by 1:1 kinetics model fitting.

[2] = system: HT1376 xenografts; test: In vivo blocking of [^68Ga]AJ647 uptake by nonradioactive AJ647, PET; parameters: species or system NSG mice; conditions: nonradioactive AJ647 2 mg/kg pre-injected; PET-MR 60 min
Description: Mice with tumor volumes of ~100 to 150 mm^3 were injected with ~200 μCi [7.4 megabecquerels (MBq)] of [^68Ga]AJ647 in […] of 5% ethanol in saline intravenously and anesthetized under 2.5% isoflurane. PET-computed tomography (CT) images were acquired at 60 min after radiotracer injection at 5 min per bed in an ARGUS small-animal PET/CT scanner (Sedecal, Madrid, Spain) as described previously (n = 3, unless otherwise noted). PET-MR images were acquired on a simultaneous 7T Bruker PET-MR scanner. Dynamic imaging was conducted to evaluate the PK of [^68Ga]AJ647. [^68Ga]AJ647 was injected (with the help of a catheter) after mice were anesthetized under 2.5% isoflurane on the equipment bed. All PET data were reconstructed using the two-dimensional (2D) ordered subset expectation maximization algorithm and corrected for radioactive decay and dead times. The SUV values were calculated by finding %IA on the basis of a calibration factor obtained from a known radioactive quantity and then normalizing by mice weight. Amide software was used to derive SUV values by drawing the region of interest to closely fit tumors. […] For the change in accessible Nectin-4 following EV treatment, ΔSUV was calculated by subtracting baseline (pre-treatment) uptake from posttherapy uptake of [^68Ga]AJ647. TE was quantified by normalizing this change by initial SUV in the same subject controls. […]

[3] = system: bladder cancer cell lines; test: In vitro blocking of [^68Ga]AJ647 uptake by nonradioactive AJ647; type: cell-based; conditions: 2 μM nonradioactive AJ647 (0.2 nmol, blocking dose)
Description: In vitro binding of [^68Ga]AJ647 to T24, SCaBER, RT112, UC9, UC14, and HT1376 cells was determined by incubating 1 × 10^6 cells with ~1 μCi of [^68Ga]AJ647 for 30 min at 4°C. After incubation, cells were washed three times with ice-cold PBS containing 0.1% Tween 20 and counted on an automated gamma counter. All cell radioactivity uptake studies were performed in quadruplicate for each cell line and repeated three times.

[4] = target: T2, human Nectin-4; test: SPR affinity for recombinant human Nectin-4; type: binding; conditions: Biacore T200, CM5 chip, 25°C, His-tagged recombinant protein captured, 1:1 kinetics fit, n = 3
Description: as §1

[5] = target: T3, His-tagged mouse Nectin-4 (R&D Systems, …); test: SPR
[6] = target: T4, His-tagged human Nectin-4 (R&D Systems, …); test: SPR

Molecule	Kd [1] [nM]	effect on [^68Ga]AJ647 uptake in HT1376 xenografts [2]	effect of co-incubation on radiotracer uptake [3]	Kd [4] [nM]	koff [5] [s⁻¹]	koff [6] [s⁻¹]
CSCC[C@@H]1NC(=O)[C@@H]2CSCCC(=O)N3CN(CN(C3)C(=O)CCSC[C@H](NC(=O)CCOCCOCCOCCOCCOCCOCCOCCOCCOCCOCCOCCOCCNC(=O)CN3CCN(CC(=O)O)CCN(CC(=O)O)CC3)C(=O)N3CCC[C@H]3C(=O)N[C@@H](Cc3cccc4ccccc34)C(=O)N[C@@H](CC(=O)O)C(=O)N2)C(=O)CCSC[C@@H](C(N)=O)NC(=O)[C@H](Cc2c[nH]c3ccccc23)NC(=O)[C@@H]2C[C@@H](O)CN2C(=O)[C@@H]2CCCN2C(=O)[C@H]([C@@H](C)O)NC(=O)[C@H](CO)NC(=O)[C@H](Cc2c[nH]c3ccccc23)NC(=O)[C@@H](CC(=O)O)NC(=O)[C@H](CCCCNC(=N)N)NC1=O [AJ647]	14.1 ± 3.4	reduction in tracer uptake	significantly reduced radiotracer uptake	15 ± 10.1	–	–
{NOTA-PEG12′}-CP[Nal]DCM[hArg]DWSTP[Hyp]WC-NH2 (linker 1-5-15 via TATA; not fully specified (residue 8)) [AJ647 (NOTA-PEG12 conjugate of the bicyclic peptide AJ632)]	–	–	–	–	0.0101	0.0106
